# Target: FP receptor (Homo sapiens (Human), UniProt P43088)
# Experiment: In vitro test of inhibition of human FP receptor activity (PGF2α-induced calcium flux in FP-expressing CHEM1 cells)
# Format: cell-based
# Settings: PGF2α 2 nM, some mean values of multiple determinations
# Method in brief: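 FP antagonism in FP-expressing CHEM1 cells loaded with Fluo-8. Compound preincubated 10 min at 37° C, then receptor stimulated with 2 nM (final) PGF2α in calcium-free Tyrode with 2 mM CaCl2.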
# FP receptor, sequence (P43088 whole entry): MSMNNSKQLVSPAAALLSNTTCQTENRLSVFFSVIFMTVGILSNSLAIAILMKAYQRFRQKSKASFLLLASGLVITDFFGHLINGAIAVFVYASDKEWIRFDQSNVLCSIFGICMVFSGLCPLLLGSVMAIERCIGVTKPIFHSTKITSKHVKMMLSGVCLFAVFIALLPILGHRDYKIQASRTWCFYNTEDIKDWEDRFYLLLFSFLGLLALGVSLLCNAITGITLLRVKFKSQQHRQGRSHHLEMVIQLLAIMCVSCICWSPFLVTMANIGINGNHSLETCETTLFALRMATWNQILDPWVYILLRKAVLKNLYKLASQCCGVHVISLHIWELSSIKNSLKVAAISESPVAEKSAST
row,Compound,IC50 [nM]
1,"Cc1c(N2CCCC(C)C2)nc2ccc(Br)cc2c1C(=O)NCC(CCC(=O)O)c1ccccc1OC(F)(F)F (single isomer, unassigned; (+)) [Example 211, (+)-5-[({6-Bromo-3-methyl-2-[3-methylpiperidin-1-yl]quinolin-4-yl}carbonyl)amino]-4-[2-(trifluoromethoxy)phenyl]pentanoic acid]",17
2,"Cc1c(N2CCCC2)nc2ccc(Br)cc2c1C(=O)NCC(CCC(=O)O)c1ccccc1OC(F)(F)F (single isomer, unassigned; (-)) [Example 130, (−)-5-({[6-Bromo-3-methyl-2-(pyrrolidin-1-yl)quinolin-4-yl]carbonyl}amino)-4-[2-(trifluoromethoxy)phenyl]pentanoic acid]",2.6
3,"Cc1c(N2CCCC2)nc2ccc(Br)cc2c1C(=O)NCC(CCC(=O)O)c1ccccc1C(F)(F)F (single isomer, unassigned; (-)) [Example 116, (−)-5-({[6-Bromo-3-methyl-2-(pyrrolidin-1-yl)quinolin-4-yl]carbonyl}amino)-4-[2-(trifluoromethyl)phenyl]pentanoic acid]",4.6
4,"Cc1c(N2CCCC(F)(F)C2)nc2ccc(Br)cc2c1C(=O)NCC(CCC(=O)O)c1ccccc1C(F)(F)F (racemic) [Example 117, (+/−)-5-({[6-Bromo-2-(3,3-difluoropiperidin-1-yl)-3-methylquinolin-4-yl]carbonyl}amino)-4-[2-(trifluoromethyl)phenyl]pentanoic acid]",16
5,"Cc1c(N2CCCC(C)C2)nc2ccc(Br)cc2c1C(=O)NCC(CCC(=O)O)c1ccccc1C(F)(F)F (single isomer, unassigned; (-)) [Example 200, (−)-5-[({6-Bromo-3-methyl-2-[3-methylpiperidin-1-yl]quinolin-4-yl}carbonyl)amino]-4-[2-(trifluoromethyl)phenyl]pentanoic acid]",17
6,"Cc1c(N2CCCC(F)(F)C2)nc2ccc(Br)cc2c1C(=O)NCC(CCC(=O)O)c1cc(F)ccc1F (single isomer, unassigned; (-)) [Example 262, (−)-5-({[6-Bromo-2-(3,3-difluoropiperidin-1-yl)-3-methylquinolin-4-yl]carbonyl}amino)-4-(2,5-difluorophenyl)pentanoic acid]",18
7,"COC1CCN(c2nc3ccc(Br)cc3c(C(=O)NCC(CCC(=O)O)c3ccccc3Cl)c2C)C1 (stereo not drawn) [Example 41, 5-[({6-Bromo-2-[3-methoxypyrrolidin-1-yl]-3-methylquinolin-4-yl}carbonyl)amino]-4-(2-chlorophenyl)pentanoic acid]",430
8,"Cc1c(N2CCCC(F)(F)C2)nc2ccc(Br)cc2c1C(=O)NCC(CCC(=O)O)c1ccccc1Cl (single isomer, unassigned; (+)) [Example 52, (+)-5-({[6-Bromo-2-(3,3-difluoropiperidin-1-yl)-3-methylquinolin-4-yl]carbonyl}amino)-4-(2-chlorophenyl)pentanoic acid]",7.1
9,"Cc1c(N2CC(F)(F)C(F)(F)C2)nc2ccc(Br)cc2c1C(=O)NCC(CCC(=O)O)c1ccccc1Cl (racemic) [Example 72, (+/−)-5-({[6-Bromo-3-methyl-2-(3,3,4,4-tetrafluoropyrrolidin-1-yl)quinolin-4-yl]carbonyl}amino)-4-(2-chlorophenyl)pentanoic acid]",80
10,"Cc1c(N2CCC[C@H]2C)nc2ccc(Br)cc2c1C(=O)NCC(CCC(=O)O)c1ccccc1Cl (single isomer, unassigned; (+)) [Example 83]",6.4
11,"Cc1ccc(F)cc1C(CCC(=O)O)CNC(=O)c1c(C)c(N2CCCC(F)(F)C2)nc2ccc(Br)cc12 (single isomer, unassigned; (+)) [Example 214, (+)-5-({[6-Bromo-2-(3,3-difluoropiperidin-1-yl)-3-methylquinolin-4-yl]carbonyl}amino)-4-(5-fluoro-2-methylphenyl)pentanoic acid]",21
12,"Cc1c(NCc2ccccc2)nc2ccc(Br)cc2c1C(=O)NCC(CCC(=O)O)c1ccccc1Cl (racemic) [Example 96, (+/−)-5-({[2-(Benzylamino)-6-bromo-3-methylquinolin-4-yl]carbonyl}amino)-4-(2-chlorophenyl)pentanoic acid]",950
13,"Cc1c(N2CCOC(CO)C2)nc2ccc(Br)cc2c1C(=O)NCC(CCC(=O)O)c1cc(F)ccc1Cl (stereo not drawn) [Example 20, 5-[({6-Bromo-2-[2-(hydroxymethyl)morpholin-4-yl]-3-methylquinolin-4-yl}carbonyl)amino]-4-(2-chloro-5-fluorophenyl)pentanoic acid]",490
14,(+)-5-[({6-Bromo-3-methyl-2-[(^2H10)piperidin-1-yl]quinolin-4-yl}carbonyl)amino]-4-[2-(trifluoromethyl)phenyl]pentanoic acid [Example 270],3.3
15,"Cc1ccccc1C(CCC(=O)O)CNC(=O)c1c(C)c(N2CCCCC2)nc2ccc(Br)cc12 (racemic) [Example 242, (+/−)-5-({[6-Bromo-3-methyl-2-(piperidin-1-yl)quinolin-4-yl]carbonyl}amino)-4-(2-methylphenyl)pentanoic acid]",7.1
16,"Cc1c(N2CCOCC2)nc2ccc(Br)cc2c1C(=O)NCC(CCC(=O)O)c1cc(F)ccc1Cl (racemic) [Example 9, (+/−)-5-({[6-Bromo-3-methyl-2-(morpholin-4-yl)quinolin-4-yl]carbonyl}amino)-4-(2-chloro-5-fluorophenyl)pentanoic acid]",290
17,"Cc1c(N2CCCCCC2)nc2ccc(Br)cc2c1C(=O)NCC(CCC(=O)O)c1c(F)ccc(F)c1Cl (single isomer, unassigned) [Example 220, 5-({[2-(Azepan-1-yl)-6-bromo-3-methylquinolin-4-yl]carbonyl}amino)-4-(2-chloro-3,6-difluorophenyl)pentanoic acid]",0.76
18,"Cc1c(N2CCC(O)C2)nc2ccc(Br)cc2c1C(=O)NCC(CCC(=O)O)c1cc(F)ccc1Cl (stereo not drawn) [Example 16, 5-[({6-Bromo-2-[3-hydroxypyrrolidin-1-yl]-3-methylquinolin-4-yl}carbonyl)amino]-4-(2-chloro-5-fluorophenyl)pentanoic acid]",290
19,"CCC1CCCN(c2nc3ccc(Br)cc3c(C(=O)NCC(CCC(=O)O)c3c(F)ccc(F)c3Cl)c2C)C1 (stereo not drawn) [Example 158, 5-[({6-Bromo-2-[3-ethylpiperidin-1-yl]-3-methylquinolin-4-yl}carbonyl)amino]-4-(2-chloro-3,6-difluorophenyl)pentanoic acid]",1.6
20,(−)-5-[({6-Bromo-3-methyl-2-[(^2H10)piperidin-1-yl]quinolin-4-yl}carbonyl)amino]-4-[2-(trifluoromethoxy)phenyl]pentanoic acid [Example 272],0.85
21,"Cc1c(N2CC[C@@H](F)C2)nc2ccc(Br)cc2c1C(=O)NCC(CCC(=O)O)c1ccccc1Cl (single isomer, unassigned; (+)) [Example 67]",6.5
22,"Cc1c(N2CCCC(C(F)F)C2)nc2ccc(Br)cc2c1C(=O)NCC(CCC(=O)O)c1ccccc1Cl (stereo not drawn) [Example 64, 5-[({6-Bromo-2-[3-(difluoromethyl)piperidin-1-yl]-3-methylquinolin-4-yl}carbonyl)amino]-4-(2-chlorophenyl)pentanoic acid]",9.8
23,"Cc1c(N2CCCCC2)nc2ccc(Br)cc2c1C(=O)NCC(CCC(=O)O)c1c(Cl)ccc(F)c1F (single isomer, unassigned; (+)) [Example 146, (+)-5-({[6-Bromo-3-methyl-2-(piperidin-1-yl)quinolin-4-yl]carbonyl}amino)-4-(6-chloro-2,3-difluorophenyl)pentanoic acid]",22
24,"Cc1c(N2CCCC2)nc2ccc(Br)cc2c1C(=O)NCC(CCC(=O)O)c1c(F)cccc1C(F)(F)F (single isomer, unassigned; (+)) [Example 164, (+)-5-({[6-Bromo-3-methyl-2-(pyrrolidin-1-yl)quinolin-4-yl]carbonyl}amino)-4-[2-fluoro-6-(trifluoromethyl)phenyl]pentanoic acid]",80
25,"Cc1c(N2CCCC(F)C2)nc2ccc(Br)cc2c1C(=O)NCC(CCC(=O)O)c1c(Cl)ccc(Cl)c1Cl (single isomer, unassigned) [Example 222, 5-[({6-Bromo-2-[3-fluoropiperidin-1-yl]-3-methylquinolin-4-yl}carbonyl)amino]-4-(2,3,6-trichlorophenyl)pentanoic acid]",3
26,"Cc1c(N2CCCC2)nc2ccc(Br)cc2c1C(=O)NCC(CCC(=O)O)c1cc(F)ccc1Cl (racemic) [Example 13, (+/−)-5-({[6-Bromo-3-methyl-2-(pyrrolidin-1-yl)quinolin-4-yl]carbonyl}amino)-4-(2-chloro-5-fluorophenyl)pentanoic acid]",18
27,"Cc1c(N2CCCCC2)nc2ccc(Br)cc2c1C(=O)NCC(CCC(=O)O)c1c(Cl)ccc(Cl)c1Cl (single isomer, unassigned; (+)) [Example 172, (+)-5-({[6-Bromo-3-methyl-2-(piperidin-1-yl)quinolin-4-yl]carbonyl}amino)-4-(2,3,6-trichlorophenyl)pentanoic acid]",41
28,"Cc1c(N2CCCCC2)nc2ccc(Br)cc2c1C(=O)NCC(CCC(=O)O)c1cccc(F)c1Cl (single isomer, unassigned; (+)) [Example 143, (+)-5-({[6-Bromo-3-methyl-2-(piperidin-1-yl)quinolin-4-yl]carbonyl}amino)-4-(2-chloro-3-fluorophenyl)pentanoic acid]",9.3
29,"Cc1c(N2CCCC(N)C2)nc2ccc(Br)cc2c1C(=O)NCC(CCC(=O)O)c1ccccc1Cl (stereo not drawn) [Example 56, 5-[({2-[3-Aminopiperidin-1-yl]-6-bromo-3-methylquinolin-4-yl}carbonyl)amino]-4-(2-chlorophenyl)pentanoic acid]",330
30,"CCC1CCCN(c2nc3ccc(Br)cc3c(C(=O)NCC(CCC(=O)O)c3ccccc3C(F)(F)F)c2C)C1 (single isomer, unassigned; (+)) [Example 193, (+)-5-[({6-Bromo-2-[3-ethylpiperidin-1-yl]-3-methylquinolin-4-yl}carbonyl)amino]-4-[2-(trifluoromethyl)phenyl]pentanoic acid]",0.62

# — patent publication US11149018B2, “Substituted N-arylethyl-2-aminoquinoline-4-carboxamides and use thereof” (Bayer Aktiengesellschaft, priority 2017, dated 2021)
